In patent US9867862B2, “Compounds and method for treating or preventing disease conditions associated with alpha-1-antitrypsin” (AMICUS THERAPEUTICS, INC., priority 2010, dated 2018):
Peptide text beside a SMILES is read from it.

Assays:
[1] = target: T1, ZAT (Homo sapiens, UniProt P01009, E366K); conditions: background studies; cited from earlier work
[2] = target: T1, ZAT; test: In vitro polymerization assay (native gel, western blot); format: biochemical; conditions: FIG. 3 western blot; peptides at 1 mM with Z-AT, 4 hours 37° C. then 30 minutes 62° C.; versus control (no peptide)
Protocol: An in vitro polymerization assay was employed to screen the ability of a pharmacological chaperone to inhibit polymerization. […] In brief, M-AT or Z-AT was incubated at 37° C. for 4 hours, followed by 30 minutes at 62° C. The samples were then run on a Bis-Tris native gel and either blotted onto PVDF or detected with colloidal blue staining. Peptides at 1 mM were incubated with equal amounts (50 ng) of Z-AT for 4 hours at 37° C., followed by a 62° C. pulse for 30 minutes. Samples were separated on a 4-12% Bis-Tris native gel, blotted onto PVDF and the blot probed with a human specific antibody for alpha-1-antitrypsin. Additionally, in the case of samples from human plasma, a western blot was performed to assess the level of alpha-1-antitrypsin. polymerization. The inducible HeLa cell line retains Z-AT intracellularly as little Z-AT can be detected in the media. The Z-AT contained in lysates is apparently not processed to complex N-glycans as the molecular weight is slightly lower than M-AT purified from plasma, which is consistent with the findings of others. The intracellular material is endo H sensitive indicative of high mannose N-linked glycans.

[3] = target: alpha-1-antitrypsin (Homo sapiens, UniProt P01009, E366K); test: Alpha-1-antitrypsin elastase inhibition assay; format: biochemical
Chain of alpha-1-antitrypsin (P01009 25-418 E366K): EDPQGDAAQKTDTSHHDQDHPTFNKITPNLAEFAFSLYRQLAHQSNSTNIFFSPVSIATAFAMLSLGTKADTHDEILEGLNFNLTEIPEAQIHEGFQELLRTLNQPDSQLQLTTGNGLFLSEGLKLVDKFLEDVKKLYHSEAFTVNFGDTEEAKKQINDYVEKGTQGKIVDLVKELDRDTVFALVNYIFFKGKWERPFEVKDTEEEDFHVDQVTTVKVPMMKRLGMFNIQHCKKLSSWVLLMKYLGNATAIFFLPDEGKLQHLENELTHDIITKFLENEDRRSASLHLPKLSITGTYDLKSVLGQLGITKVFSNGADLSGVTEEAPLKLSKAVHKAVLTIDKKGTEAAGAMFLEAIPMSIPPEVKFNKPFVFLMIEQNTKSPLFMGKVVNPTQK
Excerpt: An elastase inhibition assay was developed to measure the effects of a test compound on the inhibitory activity of secreted Z-AT. In one embodiment, to detect elastase activity, bovine elastin was labeled with BODIPY, which causes the fluorescence of the conjugate to be quenched. This non-fluorescent substrate was digested by elastase to yield highly fluorescent fragments. Alternatively, the non-fluorescent substrate may be digested by another protease to yield fluorescent fragments. The activity of α-1-antitrypsin was monitored by measuring a decrease in fluorescent signal, indicative of the elastase inhibitory activity of α-1-antitrypsin. […] In one embodiment, the resulting fluorescence was monitored in a Perkin Elmer Victor V plate reader using absorption and emission filters for fluorescein […].
Additional cell lines to screen for pharmacologic chaperones and to identify surrogate markers of Z-AT expression were developed using an inducible promoter system. The inducible systems are useful for determining if particular chaperones need to be present prior to Z-AT translation in the endoplasmic reticulum to induce secretion of Z-AT and/or inhibit […]

[4] = target: T1, ZAT; test: Western blot of intracellular ZAT in ZAT inducible CHO cells; format: cell-based; design: expressed in transfected cells; host or cells: inducible serum-free CHO cells (tetracycline repressor control); conditions: for intracellular levels of ZAT, normalized densitometry: FIG. 14 graph
Protocol: Serum Free CHO and HeLa cells in which expression of Z-AT is under control of the tetracycline repressor were grown to confluence. To analyze the intra- and extracellular production of Z-AT, media was collected and cells were lysed in non-ionic detergent. Media and lysates were analyzed on a NuPAGE SDS gel followed by western blotting utilizing a human specific sheep anti-human alpha-1-antitrypsin polyclonal antibody.
Furthermore, two compounds, compounds V and VI, decrease intracellular levels of ZAT. These compounds are shown in Table 2, along with structural data for each compound. […] The levels of intracellular levels of ZAT are even lower when treated at the higher concentration. […] FIG. 13 depicts a western blot of intracellular levels of ZAT after 1mM treatment. […] FIG. 14 is a graph of showing intracellular levels of ZAT after 1mM treatment with compounds V and VI. […] FIG. 15 is an in vitro polymerization assay with compounds I-VI, as well as Ac-TTAI-NH2 (SEQ ID NO: 6), a vehicle control and non-treated alpha-1-antitrypsin. There is an increase in polymerization after treatment with the low-molecular weight compounds.

[5] = target: T1, ZAT; test: Extracellular alpha-1-antitrypsin activity in media of ZAT inducible CHO cells; format: cell-based; design: expressed in transfected cells; host or cells: inducible serum-free CHO cells (tetracycline repressor control); conditions: FIG. 11, increasing treatment
Excerpt: An elastase inhibition assay was developed to measure the effects of a test compound on the inhibitory activity of secreted Z-AT. In one embodiment, to detect elastase activity, bovine elastin was labeled with BODIPY, which causes the fluorescence of the conjugate to be quenched. This non-fluorescent substrate was digested by elastase to yield highly fluorescent fragments. Alternatively, the non-fluorescent substrate may be digested by another protease to yield fluorescent fragments. The activity of α-1-antitrypsin was monitored by measuring a decrease in fluorescent signal, indicative of the elastase inhibitory activity of α-1-antitrypsin. A test compound was added to determine its effect on the elastase inhibitory activity of α-1-antitrypsin. In one embodiment, the resulting fluorescence was monitored in a Perkin Elmer Victor V plate reader using absorption and emission filters for fluorescein […].
Serum free CHO cell lines were developed, expressing M-AT, Z-AT (Glu342Lys) and the S mutation (Glu264Val), so that secreted alpha-1-antitrypsin activity could be measured directly from media without interference from bovine, alpha-1-antitrypsin introduced into the media from serum. Briefly, cDNA was isolated by PCR from first strand human liver cDNA using conventional cloning methods. […]

[6] = target: T1, ZAT; conditions: background studies; cited from earlier work; remark: listed apart in the source
[7] = 100 μM, FIG. 9 western blot, ZAT inducible CHO cells
[8] = 1 mM, FIG. 10 western blot, ZAT inducible CHO cells, compared with 100 μM

T1 sequence (P01009 25-418 E366K): as above

O=C(O)CCCc1ccccc1 [4-phenylbutyric acid]
secretion of Z-AT from cells [1]: can increase secretion of Z-AT from cells

CC(=O)NC(C(=O)NC(CCC(=O)O)C(=O)NC(C)C(=O)NC(C)C(N)=O)C(C)O (stereo not drawn) [Ac-TEAA-NH2, Ac-Thr-Glu-Ala-Ala-NH2] (Ac-TEAA-NH2; configuration not given here)
alpha-1-antitrypsin polymerization [2]: significantly less alpha-1-antitrypsin polymerization

CC(=O)NC(C(=O)NC(CCC(=O)O)C(=O)NC(C)C(=O)NC(C)C(=O)NCC(N)=O)C(C)O (stereo not drawn) [Ac-TEAAG-NH2, Ac-Thr-Glu-Ala-Ala-Gly-NH2] (Ac-TEAAG-NH2; configuration not given here)
alpha-1-antitrypsin polymerization [2]: significantly less alpha-1-antitrypsin polymerization

CC(=O)NC(C(=O)NC(CCC(=O)O)C(=O)NC(C(=O)NC(C)C(N)=O)C(C)C)C(C)O (stereo not drawn) [Ac-TEVA-NH2, Ac-Thr-Glu-Val-Ala-NH2] (Ac-TEVA-NH2; configuration not given here)
alpha-1-antitrypsin polymerization [2]: significantly less alpha-1-antitrypsin polymerization
inhibition of elastase activity by alpha-1-antitrypsin in the presence of peptide ([3]; FIG. 2): inhibits elastase activity significantly, in fact to a level comparable to that of wild type alpha-1-antitrypsin
inhibition of alpha-1-antitrypsin activity by the peptide ([3]; at concentrations required to inhibit polymerization): does not inhibit alpha-1-antitrypsin activity

CC(=O)NC(C(=O)NC(CO)C(=O)NC(C)C(=O)NC(C)C(N)=O)C(C)O (stereo not drawn) [Ac-TSAA-NH2, Ac-Thr-Ser-Ala-Ala-NH2] (Ac-TSAA-NH2; configuration not given here)
alpha-1-antitrypsin polymerization [2]: significantly less alpha-1-antitrypsin polymerization

COc1ccc(C(O)C(=O)NNC(=O)N[C@H](C(N)=O)C(C)O)cc1O (stereo partly drawn) [Compound VI]
intracellular levels of ZAT [4, 7]: lower levels of ZAT
intracellular levels of ZAT [4, 8]: even lower
intracellular levels of ZAT ([4]; 1 mM, FIG. 13 western blot): significant reduction in ZAT levels intracellularly
intracellular levels of ZAT, normalized densitometry ([4]; 1 mM): Levels are lower

COc1ccc(C(O)C(=O)NNC(=O)N[C@@H](CO)C(N)=O)cc1O (stereo partly drawn) [Compound V]
intracellular levels of ZAT [4, 7]: lower levels of ZAT
intracellular levels of ZAT [4, 8]: even lower
intracellular levels of ZAT ([4]; 1 mM, FIG. 13 western blot): significant reduction in ZAT levels intracellularly
intracellular levels of ZAT, normalized densitometry ([4]; 1 mM): Levels are lower
extracellular levels of ZAT and alpha-1-antitrypsin activity [5]: higher activity levels with higher treatment

O=C(O)CC(O)(CC(=O)O)C(=O)O [citrate]
in vitro polymerization of Z-AT [6]: block in vitro polymerization of Z-AT

Ac-TTAI-NH2
in vitro polymerization of Z-AT [6]: block in vitro polymerization of Z-AT
